Source: US5508301A, “Ketorolac derivatives with considerably reduced gastro-intestinal irritation and ulceration” (Roemmers S.A.I.C.F., priority 1993, dated 1996)
Structures can show the parent of a compound that is named as a salt. Where two headings read alike, the source gives them in different places.

Tests used:
[1] = Comparison tests as regards the undesired side effects, overall statement; conditions: test not shown in the table; compared with 2-(1-pyrrolidinyl)ethyl ester
in vivo [2] = conditions: mouse, po, read-out: Acute Toxicity p.o. LD50 (mg/kg) in the mouse
[3] = rat, in vivo
[4] = Antipyretic effect: temperature increase by beer yeast, rectal temperature, oral administration; type: in vivo; conditions: p.o., rat, rectal temperature 5, 6, 7 and 8 hours after administration, read-out: Antipyretic Effect p.o. of 50
Description: (§1) The antipyretic effect was determined by increasing the rat's temperature by means of beer yeast by 20% and the rectal temperature of the rat was measured 5, 6, 7 and 8 hours after the administration. The percentage of increase compared to the comparison sample was measured.

rat = conditions: LD50, species not stated in the sentence itself
in vivo [5] = conditions: rat, po
[6] = rat, in vivo; remark: listed apart in the source
[7] = rat, in vivo; remark: listed apart in the source
Description: The ulceration effect was determined in three groups of 6 rats each. […] The ulceration effect was evaluated microscopically by means of an ulceration index which corresponds to the sum of evaluations of each animal, multiplied by the percentage of animals above null, divided by the total number of animals (0=normal; 1=minor haemorrhages; 2=considerable haemorrhages; 3=small ulcus; 4=large ulcus, more than 2 mm; 5=perforated ulcus).
The same animals were examined for the degree of injury probability of stomach tissue by means of a microscopic quantification of different degrees of lesions: no change, haemorrhages, necrosis.

[8] = rat, in vivo; remark: listed apart in the source
[9] = Comparison tests as to the pharmacological effect (analgetic/antiphlogistic and antipyretic), overall statement; type: in vivo, rat; conditions: B compared with A; C compared with pyrrolidine ester
Description: The analgetic effect was measured by the test of inhibition of the contortions generated by peritoneal administration of 0.1 ml acetic acid (3%).
The antiinflammatory effect was evaluated by the Paw-Edema method in which carragenin (1%) was used and the percentage of the decrease of the volume increase was measured at the Paw of the rat.
as §1

| Structure (SMILES) | undesired side effects, in words [1] | LD50 (in vivo [2]) [mg/kg] | Possibility of Injuries of Stomach Tissue: animals with haemorrhages [3] [animals] | Possibility of Injuries of Stomach Tissue: animals with necrosis [3] [animals] | Possibility of Injuries of Stomach Tissue: animals without changes [3] [animals] | test of possible injuries of stomach tissue, in words [3] | ED50 [4] [mg/kg] | acute toxicity, in words (rat) | acute toxicity, in words (rat; listed as ketorolac trometamole salt) | LD50 (in vivo [5]) [mg/kg] | ulceration index relative to that detected with (A) [6] | undesired side effects compared with trometamole salt of ketorolac, in words [7] | destruction index of the gastric mucosa, in words [8] | acute toxicity, in words (rat; listed as oxalate of 2-(1-pyrrolidinyl)ethyl ester of ketorolac) | ulceration index relative to that of 2-(1-pyrrolidinyl)ethyl ester [6] | pharmaceutical/pharmacological effect (analgetic/antiphlogistic and antipyretic), in words [9] |
| --- | --- | --- | --- | --- | --- | --- | --- | --- | --- | --- | --- | --- | --- | --- | --- | --- |
| O=C(c1ccccc1)c1ccc2n1CCC2C(=O)OCCN1CCCCC1 (centres unmarked) [2-(1-piperidinyl)ethyl ester] | the said advantages will not be obtained |  |  |  |  |  |  |  |  |  |  |  |  |  |  |  |
| O=C(c1ccccc1)c1ccc2n1CCC2C(=O)OCCN1CCOCC1 (centres unmarked) [2-(4-morpholinyl)ethyl ester] | the said advantages will not be obtained |  |  |  |  |  |  |  |  |  |  |  |  |  |  |  |
| O=C(c1ccccc1)c1ccc2n1CCC2C(=O)O (centres unmarked) [A] |  | 118 | 2 | 4 | 0 | all show haemorrhages or necrosis | ~3 | acceptable acute toxicity | comparable and acceptable | 105 |  |  |  |  |  |  |
| O=C(c1ccccc1)c1ccc2n1CCC2C(=O)OCCN1CCCC1 (centres unmarked) [B, oxalate of 2-(1-pyrrolidinyl)ethyl ester of ketorolac] |  | 93 | 0 | 0 | 6 | all animals remain unchanged | > 3 | acceptable acute toxicity |  | 235 | merely one third of that detected with (A) | considerably less undesired side effects than the trometamole salt of ketorolac | considerably lower than with (A) | comparable and acceptable |  |  |
| CCN(CC)CCOC(=O)C1CCn2c(C(=O)c3ccccc3)ccc21 (centres unmarked) [C, maleate of 2-(diethylamino)ethyl ester of ketorolac] |  | 198 | 0 | 5 | 1 | much greater with the former than with the latter | ~3 | comparable and acceptable |  |  |  |  |  |  | twice as high as that of 2-(1-pyrrolidinyl)ethyl ester | practically the same |
